Patent publication US20250353821A1, “BENZENE SULFONAMIDE THIAZOLE COMPOUNDS AND THEIR USE FOR THE TREATMENT OF CANCERS” (INSERM (INSTITUT NATIONAL DE LA SANTÉ ET DE LA RECHERCHE …, priority 2021, published 2025)
In brackets after ≈: the same amount, converted by molar mass.

What was measured:
[1] = system: Normal human fibroblasts (FHN); test: In vitro toxicity test on normal human fibroblasts, 48 h; type: cell-based; details: concentration 10 times higher than its IC50, FIG. 2
[2] = system: A375 melanoma cells; test: Cell viability by cell counting, trypan blue exclusion method; type: cell-based; details: Homo sapiens, A-375, 48 h, percentage of cells alive relative to negative control DMSO (100%)
[3] = system: normal human melanocytes (MHN); test: In vitro toxicity test on normal human melanocytes, 48 h; type: cell-based; details: concentration 10 times higher than its IC50, FIG. 2
[4] = Pharmacokinetics in mice (half-life, AUC IV, AUC PO); type: in vivo; details: for half-life: mouse, in vivo, 1 mg/kg, head prints both IV and PO administration 1 mpk, read-out: T½ IV (min) (PO administration 1 mpk)
[5] = system: CHOP in KATO III cells; test: CHOP induction (ER stress marker), western blot, Kato III; type: cell-based, human; design: key: −: No induction of CHOP; +: Induction of CHOP; ++: Significant induction of CHOP; +++: Strong induction of CHOP; details: Kato III (1% SVF), 24 or 48 h
[6] = Aqueous solubility; type: physicochemical; details: aqueous medium (not further specified), read-out: Solublity
[7] = system: CHOP in A375 melanoma cells; test: CHOP induction (ER stress marker), western blot, A375; type: cell-based, human; design: key: −: No induction of CHOP; +: Induction of CHOP; ++: Significant induction of CHOP; +++: Strong induction of CHOP; details: A375 (serum free), 24 h
[8] = system: A375 melanoma cells; test: IC50 determination in A375 cells, blue trypan exclusion; type: cell-based, human; details: Homo sapiens, A-375; A375, serum free, 24 h
[9] = system: CHOP in Kyse 70 cells; test: CHOP induction (ER stress marker), western blot, Kyse70; type: cell-based, human; design: key: −: No induction of CHOP; +: Induction of CHOP; ++: Significant induction of CHOP; +++: Strong induction of CHOP; details: Kyse70 (serum free), 24 h
[10] = system: CHOP in SH10TC cells; test: CHOP induction (ER stress marker), western blot, SH10TC; type: cell-based, human; design: key: −: No induction of CHOP; +: Induction of CHOP; ++: Significant induction of CHOP; +++: Strong induction of CHOP; details: SH10TC (serum free), 24 or 48 h
[11] = system: NCI-60 Human Tumor Cell Lines; test: DTP-NCI-60 Human Tumor Cell Lines screen, one-dose; type: cell-based; details: growth relative to no-drug control and time zero, 100 = no inhibition, 0 = no net growth, negative = lethality
[12] = Chemical stability in PBS/DMSO and aqueous HCl; type: physicochemical; details: 24 h

| SMILES | toxicity in normal human fibroblasts [1] | viability at 5 µM ([2]; 5 μM) [%] | viability at 10 µM ([2]; 10 μM) [%] | toxicity in normal human melanocytes [3] | AUC IV (min · ng/mL/mpk) [4] [min · ng/mL/mpk] | AUC PO (min · ng/mL/mpk) [4] [min · ng/mL/mpk] | half-life [4] [min] | Induction of CHOP in comparison to control condition, Kato III [5] | solubility [6] [µM] | Induction of CHOP in comparison to control condition, A375 [7] | IC50 [8] [µM] | Induction of CHOP in comparison to control condition, Kyse70 [9] | Induction of CHOP in comparison to control condition, SH10TC [10] | Mean growth inhibition value (data from DTP-NCI60) [11] | chemical stability ([12]; PBS (pH 7.4), 20% DMSO) | chemical stability ([12]; PBS (pH 7.4), 20% DMSO, 80° C.) | chemical stability ([12]; aqueous HCl (0.1M)) |
| --- | --- | --- | --- | --- | --- | --- | --- | --- | --- | --- | --- | --- | --- | --- | --- | --- | --- |
| CC(=O)NCCCCCC(=O)Nc1nc(-c2cccc(NS(=O)(=O)c3cccc4c(N(C)C)cccc34)c2)cs1 [PB628, 6-acetamido-N-(4-(3-((5-(dimethylamino)naphthalene)-1-sulfonamido)phenyl)thiazol-2-yl)hexanamide] | no toxicity | 25.2 ± 6.1 | 12.5 ± 6.7 | no toxicity |  |  |  |  |  |  |  |  |  |  |  |  |  |
| CCCCCc1ccc(S(=O)(=O)Nc2cccc(-c3csc(NC(=O)CN4CCN(C)CC4)n3)c2)cc1 [PB688, 2-(4-methylpiperazin-1-yl)-N-(4-(3-((4-pentylphenyl)sulfonamido)phenyl)thiazol-2 yl)acetamide] |  |  |  |  | 112348 | 3000 | 76 | + | 17 ± 7 (≈ 9.21 µg/mL) | +++ | 1 | +++ | ++ |  |  |  |  |
| CCCCCc1ccc(S(=O)(=O)Nc2cccc(-c3csc(NC(=O)CN4CCN(CCO)CC4)n3)c2)cc1 [PB689, 2-(4-(2-hydroxyethyl)piperazin-1-yl)-N-(4-(3-((4-pentylphenyl)sulfonamido)phenyl)thiazol-2-yl)acetamide] |  |  |  |  |  |  | 110 | ++ |  | + | 1.3 | + | +++ |  |  |  |  |
| CCCCCc1ccc(S(=O)(=O)Nc2cc(-c3csc(NC(=O)CN4CCN(C)CC4)n3)ccc2OC)cc1 [PB691, N-(4-(4-methoxy-3-((4-pentylphenyl)sulfonamido)phenyl)thiazol-2-yl)-2-(4-methylpiperazin-1-yl)acetamide] |  |  |  |  |  | 6266 | 77 | + |  | + | 1.7 | ++ | − |  |  |  |  |
| CCCCCc1ccc(S(=O)(=O)Nc2cc(-c3csc(NC(=O)CN4CCN(CCO)CC4)n3)ccc2OC)cc1 [PB692, 2-(4-(2-hydroxyethyl)piperazin-1-yl)-N-(4-(4-methoxy-3-((4-pentylphenyl)sulfonamido)phenyl)thiazol-2-yl)acetamide] |  |  |  |  | 488474 | 3978 |  | + | 7 ± 5 (≈ 4.21 µg/mL) | + | 1.6 | + | + | 23.99 |  |  |  |
| CCCCCc1ccc(S(=O)(=O)Nc2cccc(-c3csc(NC(=O)CNCCN(C)C)n3)c2)cc1 [PB693, 2-((2-(dimethylamino)ethyl)amino)-N-(4-(3-((4-pentylphenyl)sulfonamido)phenyl)thiazol-2-yl)acetamide] |  |  |  |  |  |  |  | − |  | ++ | 1 | + | − |  |  |  |  |
| CCCCCc1ccc(S(=O)(=O)Nc2cccc(-c3csc(NC(=O)CCCCCN4CCN(C)CC4)n3)c2)cc1 [PB694, 6-(4-methylpiperazin-1-yl)-N-(4-(3-((4-pentylphenyl)sulfonamido)phenyl)thiazol-2-yl)hexanamide] |  |  |  |  |  |  |  | + |  | + | 0.75 | ++ | ++ | 37.26 |  |  |  |
| CCCCCc1ccc(S(=O)(=O)Nc2cccc(-c3csc(NC(=O)CCCCCN4CCN(CCO)CC4)n3)c2)cc1 [PB695, 6-(4-(2-hydroxyethyl)piperazin-1-yl)-N-(4-(3-((4-pentylphenyl)sulfonamido)phenyl)thiazol-2-yl)hexanamide] |  |  |  |  |  |  |  | − |  | + | 0.6 | + | ++ |  |  |  |  |
| CCCCCc1ccc(S(=O)(=O)Nc2cc(-c3csc(NC(=O)CN4CCN(C)CC4)n3)ccc2N2CCN(C)CC2)cc1 [PB696, 2-(4-methylpiperazin-1-yl)-N-(4-(4-(4-methylpiperazin-1-yl)-3-((4-pentylphenyl)sulfonamido)phenyl)thiazol-2-yl)acetamide] |  |  |  |  |  |  | 312 | + | 49 ± 16 (≈ 31.4 µg/mL) | + | 0.9 | − | ++ |  |  |  |  |
| CCCCCc1ccc(S(=O)(=O)Nc2cccc(-c3csc(NCCN4CCN(C)CC4)n3)c2)cc1 [PB704, N-(3-(2-((2-(4-methylpiperazin-1-yl)ethyl)amino)thiazol-4-yl)phenyl)-4-pentylbenzenesulfonamide] |  |  |  |  | 197707 | 4435 |  | + | 1.4 ± 0.3 (≈ 0.739 µg/mL) | ++ | 1.2 | + | − | 55.54 | full stability | full stability | full stability |
| CCCCCc1ccc(S(=O)(=O)N(C(C)=O)c2cccc(-c3csc(N(CCN4CCN(C)CC4)C(C)=O)n3)c2)cc1 [PB705, N-(2-(4-methylpiperazin-1-yl)ethyl)-N-(4-(3-(N-((4-pentylphenyl)sulfonyl)acetamido)phenyl)thiazol-2-yl)acetamide] |  |  |  |  |  |  |  | ++ |  | ++ | 1.3 |  |  | 5.64 |  |  |  |
